This note sets out measurements from US6093732A, “4-hydroxyquinoline-3-carboxamides and hydrazides as antiviral agents” (Pharmacia & Upjohn Company, priority 1998, dated 2000).

Counter-ions that a name gives are not always drawn.

The target in this test is T1, HCMV polymerase (Human cytomegalovirus, UniProt P08546).
T1 construct: made in house; host or cells: recombinant baculovirus-infected SF-9 cells
T1 sequence (P08546 whole entry): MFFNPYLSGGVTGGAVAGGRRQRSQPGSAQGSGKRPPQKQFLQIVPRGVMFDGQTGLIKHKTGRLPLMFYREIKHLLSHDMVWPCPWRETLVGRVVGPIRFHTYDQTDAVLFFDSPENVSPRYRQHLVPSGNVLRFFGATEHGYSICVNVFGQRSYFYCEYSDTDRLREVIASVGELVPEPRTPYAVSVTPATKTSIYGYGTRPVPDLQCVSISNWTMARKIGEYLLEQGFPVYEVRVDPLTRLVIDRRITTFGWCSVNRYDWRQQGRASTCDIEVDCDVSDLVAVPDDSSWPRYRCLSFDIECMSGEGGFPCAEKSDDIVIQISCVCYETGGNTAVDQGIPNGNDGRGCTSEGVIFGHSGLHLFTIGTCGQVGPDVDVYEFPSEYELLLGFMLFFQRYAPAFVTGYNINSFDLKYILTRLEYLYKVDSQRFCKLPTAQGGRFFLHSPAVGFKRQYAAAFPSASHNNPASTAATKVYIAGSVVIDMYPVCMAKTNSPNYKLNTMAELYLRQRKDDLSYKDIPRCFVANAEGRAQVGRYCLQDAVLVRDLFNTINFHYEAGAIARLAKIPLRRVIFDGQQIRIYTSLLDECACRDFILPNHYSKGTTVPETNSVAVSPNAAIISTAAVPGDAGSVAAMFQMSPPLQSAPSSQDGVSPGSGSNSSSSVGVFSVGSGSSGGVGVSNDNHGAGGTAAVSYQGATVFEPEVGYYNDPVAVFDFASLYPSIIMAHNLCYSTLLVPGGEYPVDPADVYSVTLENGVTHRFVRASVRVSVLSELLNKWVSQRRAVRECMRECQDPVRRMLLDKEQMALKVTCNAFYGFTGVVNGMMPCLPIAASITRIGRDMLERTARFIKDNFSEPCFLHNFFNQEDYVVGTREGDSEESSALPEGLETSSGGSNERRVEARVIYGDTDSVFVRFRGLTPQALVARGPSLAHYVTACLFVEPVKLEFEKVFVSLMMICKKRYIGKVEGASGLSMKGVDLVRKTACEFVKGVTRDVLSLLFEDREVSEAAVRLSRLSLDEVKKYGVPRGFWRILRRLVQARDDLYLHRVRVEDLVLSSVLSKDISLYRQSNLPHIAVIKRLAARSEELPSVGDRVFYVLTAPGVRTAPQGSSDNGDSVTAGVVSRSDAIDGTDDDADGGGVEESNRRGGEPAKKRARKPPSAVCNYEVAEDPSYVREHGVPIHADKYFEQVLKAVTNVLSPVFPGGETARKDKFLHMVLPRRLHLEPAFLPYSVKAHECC
The experiment in a line: HCMV polymerase scintillation proximity assay (SPA), modified version. Format: biochemical. Conditions: CMV polymerase; Table 1; modified assay with 4.5 mM DTT, compounds in 100% DMSO; read-out: Antiviral Selective Polymerase IC50 Values, CMV. As to the method: The HCMV polymerase assay is performed using a scintillation proximity assay (SPA) as described in several references, such as N. D. Cook, et al., Pharmaceutical Manufacturing International, pages 49-53 (1992); K. Takeuchi, Laboratory Practice, September issue (1992); U.S. Pat. No. 4,568,649 (1986); which are incorporated by reference herein. Reactions are performed in 96-well plates. The assay is conducted in 100 μl volume with 5.4 mM HEPES (pH 7.5), 11.7 mM KCl, 4.5 mM MgCl2, 0.36 mg/ml BSA, and 90 nM ^3 H-dTTP. Assays are run with and without CHAPS, (3-[(3-Cholamidopropyl)-dimethylammonio]-1-propane-sulfonate) at a final concentration of 2 mM. HCMV polymerase is diluted in enzyme dilution buffer containing 50% glycerol, 250 mM NaCl, 10 mM HEPES (pH 7.5), 100 μg/ml BSA, and 0.01% sodium azide. The HCMV polymerase, which is expressed in recombinant baculovirus-infected SF-9 cells and purified according to literature procedures, is added at 10% (or 10 μl) of the final reaction volume, i.e., 100 μl. Compounds are diluted in 50% DMSO and 10 μl are added to each well. Control wells contain an equivalent concentration of DMSO. Unless noted otherwise, reactions are initiated via the addition of 6 nM biotinylated poly(dA)-oligo(dT) template/primer to reaction mixtures containing the enzyme, substrate, and compounds of interest. Plates are incubated in a 25° C. or 37° C. H2 O bath and terminated via the addition of 40 μl/reaction of 0.5 M EDTA (pH 8) per well. Reactions are terminated within the time-frame during which substrate incorporation is linear and varied depending upon the enzyme and conditions used, i.e., 30 min. for HCMV polymerase. Ten μl of streptavidin-SPA beads (20 mg/ml in PBS/10% glycerol) are added following termination of the reaction. Plates are incubated 10 min. at 37° C., then equilibrated to room temperature, and counted on a Packard Topcount. Linear regressions are performed and IC50 's are calculated using computer software.
A modified version of the above HCMV polymerase assay is performed as described above, but with the following changes: Compounds are diluted in 100% DMSO until final dilution into assay buffer. In the previous assay, compounds are diluted in 50% DMSO. 4.5 mM dithiotherotol (DTT) is added to the polymerase buffer. […] Other viral polymerase assays are performed using procedures similar to those described above.
On to `O=C(NCc1ccc(Cl)cc1)c1cnc2c(F)cc(SCCN3CCOCC3)cc2c1O` [Example 174], for which the IC50 came to 28.9 µM.

For the compound `O=C(NCc1ccc(Cl)cc1)c1cnc2c(F)cc(S(=O)(=O)NCCO)cc2c1O` [Example 197, N-(4-Chlorobenzyl)-8-fluoro-4-hydroxy-6-{[(2-hydroxyethyl)amino]-sulfonyl}-3-quinolinecarboxamide], the IC50 was 19.6 µM.

For the compound `O=C(NCc1ccc(Cl)cc1)c1cnc2c(F)cc(S(=O)(=O)NCCN(CCO)CCO)cc2c1O` [Example 250, 6-[({2-[bis(2-hydroxyethyl)amino]ethyl}amino)sulfonyl]-N-(4-chlorobenzyl)-8-fluoro-4-hydroxy-3-quinolinecarboxamide], the IC50 stood at 45.2 µM. `CC(=O)CCc1cc(F)c2ncc(C(=O)NCc3ccc(Cl)cc3)c(O)c2c1` [Example 160, N-(4-Chlorobenzyl)-8-fluoro-4-hydroxy-6-(3-oxobutyl)-3-quinolinecarboxamide]: the IC50 came to 1.2 µM. Take `CCOC(=O)CNS(=O)(=O)c1cc(F)c2ncc(C(=O)NCc3ccc(Cl)cc3)c(O)c2c1` [Example 196, Ethyl 2-{[(3-{[(4-chlorobenzyl)amino]carbonyl}-8-fluoro-4-hydroxy-6-quinolinyl)sulfonyl]amino) acetate]: the IC50 was found to be 19.4 µM.

In the case of `NCCCCC(N)C(=O)OCCCc1cc(F)c2ncc(C(=O)NCc3ccc(Cl)cc3)c(O)c2c1` (centres unmarked) [Example 156, 3-(3-{[(4-Chlorobenzyl)amino]carbonyl}-8-fluoro-4-hydroxy-6-quinolinyl)propyl 2,6-diaminohexanoate, trifluoroacetic acid salt], the IC50 amounted to 15.9 µM. For the compound `COCCOc1c(F)cc2c(O)c(C(=O)NCc3ccc(Cl)cc3)cnc2c1F` [Example 83, N-((4-Chlorophenyl)methyl)-6,8-difluoro-4-hydroxy-7-(2-(methoxy)ethoxy)-3-quinolinecarboxamide], the IC50 was 4.3 µM.

With `O=C(NCc1ccc(Cl)cc1)c1cnc2ccc(S(=O)(=O)Nc3ccnn3-c3ccccc3)cc2c1O` [Example 47, N-[(4-Chlorophenyl)methyl]-4-hydroxy-6-[[(1-phenyl-1H-pyrazol-5-yl)amino]sulfonyl]-3-quinolinecarboxamide], the IC50 came out at 39.7 µM. Turning to `O=C(NCc1ccc(Cl)cc1)c1cnc2cc(F)c(F)cc2c1O` [Example 169, N-[(4-Chlorophenyl)methyl]-6,7-difluoro-4-hydroxy-3-quinolinecarboxamide], the IC50 is 3.7 µM.

For the compound `O=C(NNc1ccc(Cl)cc1)c1cnc2c(F)cc(I)cc2c1O` [Example 54, 8-Fluoro-4-hydroxy-6-iodo-3-quinolinecarboxylic acid 2-(4-chlorophenyl)hydrazide], the IC50 is 8.6 µM. As to `CN1CCCC1CCNS(=O)(=O)c1cc(F)c2ncc(C(=O)NCc3ccc(Cl)cc3)c(O)c2c1` (centres unmarked) [Example 202, N-(4-chlorobenzyl)-8-fluoro-4-hydroxy-6-({[2-(1-methyl-2-pyrrolidinyl)ethyl]amino}sulfonyl)-3-quinolinecarboxamide], the IC50 is ≥ 50 µM. For `NC(=O)c1cc(F)c2ncc(C(=O)NCc3ccc(Cl)cc3)c(O)c2c1` [Example 184, N^3-(4-Chlorobenzyl)-8-fluoro-4-hydroxy-3,6-quinolinedicarboxamide] the value was 30.4 µM; for `COCCCc1cc(F)c2ncc(C(=O)NCc3ccc(Cl)cc3)c(O)c2c1` [Example 103, N-(4-Chlorobenzyl)-8-fluoro-4-hydroxy-6-(3-methoxypropyl)-3-quinolinecarboxamide], 2.5 µM; for `CN(CCS(=O)(=O)O)C(=O)CCCCCCC(=O)OCC#Cc1ccc2ncc(C(=O)NCc3ccc(Cl)cc3)c(O)c2c1`, 16.5 µM.

As for `CC(=O)NCCNS(=O)(=O)c1cc(F)c2ncc(C(=O)NCc3ccc(Cl)cc3)c(O)c2c1` [Example 227, 6-({[2-(acetylamino)ethyl]amino}sulfonyl)-N-(4-chlorobenzyl)-8-fluoro-4-hydroxy-3-quinolinecarboxamide], the IC50 is 26.7 µM. As to `O=C(NCc1ccc(Cl)cc1)c1cnc2c(F)cc(S(=O)(=O)NCC3CCCO3)cc2c1O` (centres unmarked) [Example 208, N-(4-chlorobenzyl)-8-fluoro-4-hydroxy-6-{[(tetrahydro-2-furanylmethyl)amino]sulfonyl}-3-quinolinecarboxamide], the IC50 worked out at 41.6 µM. Regarding `NC(=S)c1cc(F)c2ncc(C(=O)NCc3ccc(Cl)cc3)c(O)c2c1` [Example 52, 6-(Aminothioxomethyl)-N-[(4-chlorophenyl)methyl]-8-fluoro-4-hydroxy-3-quinolinecarboxamide], the IC50 worked out at 11 µM.

For `COCCOCSc1cc(F)c2ncc(C(=O)NCc3ccc(Cl)cc3)c(O)c2c1` [Example 173, N-(4-Chlorobenzyl)-8-fluoro-4-hydroxy-6-{[(2-methoxyethoxy)-methyl]sulfanyl}-3-quinolinecarboxamide], the IC50 is 12.8 µM. Turning to `O=C(NCc1ccc(Cl)cc1)c1cnc2cccc(O)c2c1O` [Example 42, N-[(4-Chlorophenyl)methyl]-4,5-dihydroxy-3-quinolinecarboxamide], the IC50 was found to be 19.2 µM. Turning to `O=C(NCc1ccc(Cl)cc1)c1cnc2ccc(Cl)cc2c1O` [Example 21, 6-Chloro-N-[(4-chlorophenyl)methyl]-4-hydroxy-3-quinoline-carboxamide], the IC50 was found to be 4.4 µM.

On to `CC(C)CCNS(=O)(=O)c1cc(F)c2ncc(C(=O)NCc3ccc(Cl)cc3)c(O)c2c1` [Example 233, N-(4-chlorobenzyl)-8-fluoro-4-hydroxy-6-[(isopentylamino)sulfonyl]-3-quinolinecarboxamide], for which the IC50 amounted to 11.2 µM. Consider `O=C(NCc1ccc(Cl)cc1)c1cnc2c(O)cccc2c1O` [Example 45, N-[(4-Chlorophenyl)methyl]-4,8-dihydroxy-3-quinoline-carboxamide], for which the IC50 was 4.6 µM.

As to `O=C(NCc1ccc(Cl)cc1)c1cnc2cc3c(cc2c1O)OCO3` [Example 279, N-(4-Chlorobenzyl)-8-hydroxy[1,3]dioxolo [4,5-g]quinoline-7-carboxamide], the IC50 was 4.9 µM.

As to `O=C(O)CCc1cc(F)c2ncc(C(=O)NCc3ccc(Cl)cc3)c(O)c2c1` [Example 114, 3-(3-{[(4-Chlorobenzyl)amino]carbonyl}-8-fluoro-4-hydroxy-6-quinolinyl)propanoic acid], the IC50 came out at 2.2 µM. The result for `O=C(NCc1ccc(Cl)cc1)c1cnc2c(F)cc(S(=O)(=O)NCCCc3ccccc3)cc2c1O` [Example 234, N-(4-chlorobenzyl)-8-fluoro-4-hydroxy-6-{[(3-phenylpropyl)amino]sulfonyl}-3-quinolinecarboxamide] reads 8.9 µM; that for `O=C(NCc1ccc(Cl)cc1)c1cnc2c(F)cc(S(=O)(=O)NCc3cccs3)cc2c1O` [Example 209, N-(4-chlorobenzyl)-8-fluoro-4-hydroxy-6-{[(2-thienylmethyl)amino]sulfonyl}-3-quinolinecarboxamide], 8.6 µM; that for `O=C(NCc1ccc(Cl)cc1)c1cnc2c(F)cc(S(=O)(=O)N(CCO)CCO)cc2c1O` [Example 195, 6-{[Bis(2-hydroxyethyl)amino]sulfonyl}-N-(4-chlorobenzyl)-8-fluoro-4-hydroxy-3-quinolinecarboxamide], 18.3 µM. Regarding `O=C(NCc1ccc(Cl)cc1)c1cnc2c([N+](=O)[O-])cccc2c1O` [Example 49, N-[(4-Chlorophenyl)methyl]-4-hydroxy-8-nitro-3-quinoline-carboxamide], the IC50 is 3.7 µM. With `CC(O)C#Cc1ccc2ncc(C(=O)NCc3ccc(Cl)cc3)c(O)c2c1` (centres unmarked) [Example 152, N-(4-Chlorobenzyl)-4-hydroxy-6-(3-hydroxy-1-butynyl)-3-quinolinecarboxamide], the IC50 came out at 5.4 µM. On to `O=C(NCc1ccc(Cl)cc1)c1cnc2cc(NS(=O)(=O)c3ccccc3)ccc2c1O` [Example 33, N-[(4-Chlorophenyl)methyl]-4-hydroxy-7-[(phenylsulfonyl)-amino]-3-quinolinecarboxamide], for which the IC50 came out at 24.3 µM. As for `N#Cc1cc(F)c2ncc(C(=O)NCc3ccc(Cl)cc3)c(O)c2c1` [Example 51, N-[(4-Chlorophenyl)methyl]-6-cyano-8-fluoro-4-hydroxy-3-quinolinecarboxamide], the IC50 is 12.2 µM. On to `O=C(NCc1ccc(Cl)cc1)c1cnc2c(F)cc(S(=O)(=O)NCc3ccccn3)cc2c1O` [Example 199, N-(4-Chlorobenzyl)-8-fluoro-4-hydroxy-6-{[(2-pyridinylmethyl)amino]-sulfonyl}-3-quinolinecarboxamide], for which the IC50 worked out at 26.4 µM.
